In patent US9546200B2, “Peptide for protection of allergic respiratory disorders” (Board of Supervisors of Louisiana State University and …, priority 2011, dated 2017):
Residues, ends and D or L forms follow the SMILES beside them.

Tested on: foals
Design: species or system horse
Settings: in vivo
Experimental: Two days before the injection of the peptide-1, a foal along with the mare was brought from the pasture to a bedded stall of the LSU School of Veterinary Medicine. They were fed hay and concentrated horse chow (Horse Chow #200^R, Purina Mills, St. Louis, Mo.); water was provided ad libitum. A physical examination was conducted on the day of injection. The foal's body temperature, heart rate, respiratory rate, body weight, body score, sex, breed, age and general physical conditions were recorded. After the physical examination, 5 ml of blood was drawn from jugular vein to determine pre-immune antibody titer (control value) and CBC.
Since the peptide-1 has not been tried in any animals, the first foal was used to test the injection method and dosage. A low dose of 0.1 mg/kg body weight of conjugated peptide-1 with KLH was used, but without an adjuvant to minimize any adverse reactions due to either a high dose of peptide-1 or adjuvant. This protocol allowed a determination of any reaction due to the conjugated peptide-1 alone. A subcutaneous route of administration was chosen to produce a consistent “slow and steady” absorption. The first injection was given on the left side of the neck after cleaning with alcohol. […] After the injection, 5 ml blood was collected weekly. A booster injection with the same dose and route was given on the right side of the neck on the 15th day following the initial injection. Weekly blood collections continued for 42 days. […] For the remaining foals, a new protocol was used in that an adjuvant was added to the injection and the booster injection was given on the 28th day after the initial injection.
Immediately after injection (either the first injection or the booster), a small swelling (size 1″×0.5″) at the site of injection was observed. The foal was observed continuously for the first hour and later every hour for eight hours. The foal evinced pain upon touch at the injection site, but it was eating, nursing, and drinking within 15 minutes after injection. […] No sweating, fever, cough, seizure or difficulty in breathing was observed.
The foal remained under close observation for another two days, when the swelling began to subside. On the third day, foal and mare were allowed to go to the pasture. A similar swelling occurred at the booster injection time also. Therefore, in the animal protocol, foals would be kept in the bedded stall with the mare for a week after injection to observe the foals closely. In addition, the protocol demanded that if the swollen area is more than 2.5″ in diameter and more than 0.5″ in thickness, hot water packs are to be applied to relieve pain and swelling. Veterinary medical care is to be consulted if the condition worsens. After one week in the stall, the Foal #2 was let out to pasture and continued to do well for the remainder of the experimental period of 57 days.
The basic protocol is as described for Foal #2. However, before injecting the peptide, extra care was taken in cleaning the injection site by scrubbing the site with Septisol antiseptic foam (Septisol^R, Steris Corp., Ohio) and alcohol. […] There was a small swelling in this foal which lasted only for 24 hours, probably due to the adjuvant. The adjuvant has an oily consistency, which would facilitate slow absorption of the injected solution.

## CC[C@H](C)[C@H](NC(=O)[C@H](CCCCN)NC(=O)[C@H](CC(=O)O)NC(=O)[C@H](CCSC)NC(=O)[C@H](CC(C)C)NC(=O)[C@H](CCCCN)NC(=O)[C@H](CC(C)C)NC(=O)[C@@H](NC(=O)[C@H](CO)NC(=O)[C@H](CC(=O)O)NC(=O)[C@H](CCCCN)NC(=O)[C@@H](NC(=O)[C@H](CC(N)=O)NC(=O)[C@@H](N)CCCCN)[C@@H](C)O)[C@@H](C)CC)C(=O)N[C@@H](C)C(=O)N[C@@H](CCCCN)C(=O)N[C@@H](CO)C(=O)N1CCC[C@H]1C(=O)N[C@@H](CC(C)C)C(=O)N[C@@H](CS)C(=O)N[C@@H](C)C(=O)O [Peptide-1] (H-KNTKDSILKLMDKIAKSPLCA-OH)
  area of swelling at the injection site: 2.5″×2″
  size of swelling at the site of injection: 1″×0.5″
  thickness of swelling at the injection site: 0.5 ″
sc, 0.1 mg/kg
  duration of swelling: 24 h
  other adverse reaction: no other adverse reaction
